Experimental data taken from patent US20220235325A1, “STIMULATION OF DENDRITIC CELL ACTIVITY BY HOMOTAURINE AND ANALOGUES THEREOF” (Therapeutic Solutions International, Inc., priority 2021, published 2022).

Legend:
monocytes = conditions: cited from earlier work
NK target cell line = assay: Natural killer cell activity of PBMC plated with StemVacs dendritic cells (flow cytometry Promega cytotoxicity assay); format: cell-based; conditions: 10 micrograms/ml; PBMC plus StemVacs umbilical cord derived dendritic cells; 12, 24, 36 hrs (FIG. 1)
Method: (§1) Peripheral blood mononuclear cells where obtained by ficoll centrifugation and plated with StemVacs umbilical cord derived dendritic cells. StemVacs was generated by culture of umbilical blood adherent cells with interleukin 4 and GM-CSF for 7 days with maturation step induced by 24 hour culture TLR agonist. Assessment of natural killer cell activity was performed subsequent to culture of cells with taurine (10 micrograms/ml) or homotaurine (10 micrograms/ml) for the indicated timepoints. Cytotoxicity against NK target cell line was performed using the flow cytometry Promega assay.

[1] = tested on: interferon gamma production; assay: T cell activity of PBMC plated with StemVacs dendritic cells (ELISA of interferon gamma after phytohemagglutinin); format: cell-based; conditions: 10 micrograms/ml; PBMC plus StemVacs; 5 micrograms per ml phytohemagglutinin; 12, 24, 36 hrs (FIG. 2)
Method: as §1, with “StemVacs” left out, “T” for “natural killer”, “T” for “Cytotoxicity against NK target”, “activity” for “line”, “assessed by ELISA quantification of interferon gamma production after stimulation with 5 micrograms per ml of phytohemagglutinin.” for “performed using the flow cytometry Promega assay.”

[2] = monocytes from human peripheral blood

Structure (SMILES)	FcgammaR-mediated cytokine production and antibody-dependent cellular cytotoxicity by monocytes (monocytes; 12 hour exposure)	Expression of ADCC associated receptors FcgammaRI, FcgammaRIIa and common gamma-subunit (monocytes; [2])	Expression of the inhibitory FcgammaRIth molecule (monocytes; [2])	Ability of StemVacs to stimulate NK activity (cytotoxicity against NK target cell line) (NK target cell line)	Ability of StemVacs to stimulate T cell activity (interferon gamma production) [1]
CCOCc1nc2c(N)nc3ccccc3c2n1CC(C)(C)O [R-848]	increased	upregulation	profound downregulation	–	–
NCCCS(=O)(=O)O [Homotaurine, homotaurine]	–	–	–	Increases Ability of StemVacs to Stimulate NK Activity	Increases Ability of StemVacs to Stimulate T Cell Activity
